Reference: EP3293174A1, “CRYSTALLINE SALTS OF BETRIXABAN” (SANDOZ AG, priority 2016, dated 2018)
Counter-ions that a name gives are not always drawn.

Legend:
Assay type in all cases: physicochemical
[1] = Gravimetric moisture sorption/desorption (GMSD) isotherms; conditions: for hygroscopicity according to the GMSD isotherms: 25 ± 0.1°C, 0 to 95% RH; for water: when measured at 0 to 95% RH and 25 ± 0.1°C
Method: Gravimetric moisture sorption/desorption
Gravimetric moisture sorption/desorption (GMSD) isotherms were recorded with an SPSx-1µ moisture sorption analyzer (ProUmid, Ulm). The measurement cycle was started at ambient relative humidity (RH) of 30%. Relative humidity was then decreased to 5% RH in 5% steps, followed by a further decrease to 3% RH and to 0% RH. For this isotherm, as black filled square with a white x inside is used in the respective figures. Afterwards RH was increased from 0% to 95% RH in a sorption cycle and decreased to 0 % in a desorption cycle in 5% steps. Finally RH was increased to 40% RH in 5% steps. As to the isotherm obtained by the last step, a black filled square with a white star inside is used as symbol in the respective figures.
The time per step was set to a minimum of 2 hours and a maximum of 6 hours. If an equilibrium condition with a constant mass of ± 0.01 % within 1 hour was reached before the maximum time for all examined samples the sequential humidity step was applied before the maximum time of 6 hours. If no equilibrium was achieved the consecutive humidity step was applied after the maximum time of 6 hours. The temperature was 25 ± 0.1°C.

[2] = Determination of the moisture stability (climate chamber, PXRD analysis)
Method: Powder X-ray diffraction (PXRD) was performed with a PANalytical X'Pert PRO diffractometer equipped with a theta/theta coupled goniometer in transmission geometry, Cu-Kα1,2 radiation (wavelength 0.15419 nm) with a focusing mirror and a solid state PIXcel detector. Diffractograms were recorded at a tube voltage of 45 kV and a tube current of 40 mA, applying a stepsize of 0.013° 2-Theta with 40s per step (255 channels) in the angular range of 2° to 40° 2-Theta at ambient conditions. Determination of the moisture stability Moisture stability at accelerated stability conditions was performed in a Memmert constant climate chamber HPP110.

[3] = Determination of the solubility in water (solvent addition technique); conditions: 25 °C, thermodynamic from solid, in water at 25°C, estimated by solvent addition
Method: About 10 mg of crystalline betrixaban salt were weighed out into a vial. Water was added to the vial in aliquots of 500 µL and 200 µL until the salt was dissolved. In between the water additions the samples was sonicated for about 5 min, followed by shaking at 25°C for about 10 to 15 min.

[4] = listed as crystalline form B of betrixaban hydrobromide, hydrobromide
[5] = 8 weeks at 40°C and a relative humidity of 75%
[6] = listed as crystalline form A of betrixaban hydrochloride, hydrochloride

Structure (SMILES)	hygroscopicity according to the GMSD isotherms [1, 4]	water [1, 4] [%]	PXRD pattern after storage compared with the initial pattern (moisture stability test) [2, 5]	hygroscopicity according to the GMSD isotherms [1, 6]	water [1, 6] [%]	solubility [3] [mg/mL]	PXRD pattern after storage compared with the initial pattern (moisture stability test) ([2]; 4 weeks at 40°C and a relative humidity of 75%)
COc1ccc(NC(=O)c2ccc(C(=N)N(C)C)cc2)c(C(=O)Nc2ccc(Cl)cn2)c1 [Betrixaban hydrobromide, form B, betrixaban hydrobromide]	moderately hygroscopic	≤ 1.9	essentially identical	–	–	–	–
COc1ccc(NC(=O)c2ccc(C(=N)N(C)C)cc2)c(C(=O)Nc2ccc(Cl)cn2)c1 [Betrixaban hydrochloride, form A, betrixaban hydrochloride]	–	–	essentially identical	non-hygroscopic	≤ 0.2	> 5	–
COc1ccc(NC(=O)c2ccc(C(=N)N(C)C)cc2)c(C(=O)Nc2ccc(Cl)cn2)c1 [Betrixaban hydrochloride, form B, betrixaban hydrochloride]	–	–	–	–	–	–	essentially identical
